# Source: patent US11921020B2, “Method of purifying tumor cells using shear stress” (UNIVERSITY OF IOWA RESEARCH FOUNDATION, priority 2011, dated 2024)
# Tests used:
# [1] = system: PC-3 cells; experiment: Fluid shear stress protocol (repeated passage through 30 gauge needle), cell viability; type: cell-based, human; conditions: for shear stress resistance of cells in PBS supplemented with the cation: 88 mM final concentration, n=1
# Procedure: (§1) 5 mL of a 5×10^5 cell/mL suspension was placed into 10 mL glass beaker (Pyrex) and loaded into a 5 mL syringe (BD Biosciences #309603) by slowly drawing the cells into the syringe manually. A 30 gauge needle (BD Biosciences #305106) was then attached to the syringe and cells were pushed through at a constant flow rate by one of two methods:
# Syringe Pump: A Harvard Apparatus PHD-2000 Infuse/Withdraw syringe pump was calibrated for the syringes being used and set to the appropriate flow rate (see Table I). After securing the syringe to the pump housing, a 6-inch small bore extension set (Smiths Medical MX448L) was used to connect the syringe and needle. The 10 mL beaker was secured at a 45-degree angle and the needle rested gently (without damaging the bevel) at the bottom of the beaker. The pump is then turned on and the cell suspension was collected into the beaker. The bore extension, still connected to the needle, was then removed from the syringe, and the syringe was removed from the pump. The cell suspension was re-loaded into the syringe as described above. In a standard assay, this process was repeated until cells have been passaged a total of ten times (control experiments were taken out to 15 passages). After each passage, 100 μL aliquots of cell suspension were removed from the glass beaker in duplicate for viability assays (described below). For non-shear stress treated control, cells which have been in suspension for the entire duration of the assay were aliquoted and treated as 100% viability controls.
# (§2) 250 μL/sec flow rate: This is the most commonly used flow rate throughout this example. To facilitate throughput, some experiments at 250 μL/sec were done manually. Here, cell suspensions were prepared as above with one exception: the small bore extension was not used, rather the needle was directly secured to the syringe. Suspensions were pushed through the needle by hand and collected into a 10 mL glass beaker. To control the flow rate using this approach, a timer was zeroed before each needle passage and the time taken to push a given volume through the needle was measured. At each passage, the volume in milliliters was divided by the time in seconds to give flow rate in mL/sec. Data for figures was only obtained from shear stress assays in which the average flow rate over 10 passages was ±10 μL/sec of the targeted 250 μL/sec. […] Further, to assure reproducibility, most assays were repeated ten times or more.
# Bioluminescence Imaging (BLI): 100 μL aliquots of shear stress-treated cells or control cells (those sitting in suspension through the duration of shear treatment) were loaded into a black 96 well plate (Costar) in duplicate. Each well was then diluted to 200 μL at final concentration of 150 μg/mL D-luciferin (Promega) using a multichannel pipette. Plates were incubated for 5 minutes at room temperature and then imaged for 5 minutes in an IVIS-100 (Xenogen). Bioluminescence measurements were collected using Living Image 2.50.1 software (Igor Pro). The photon flux of shear treated cells was divided by that of control cells to give % viability. All figures with BLI-derived viability data represent the average of at least 3 experiments.
# Next, whether rearrangements of the cytoskeleton occur in response to shear stress and thereby imparts a protective advantage to cells was investigated. […]
# [2] = system: MDA.MB.231 cells; experiment: as above; type: cell-based, human
# Procedure: as §1
# as §2, with “more. […]” for “more.”
# [3] = 20 nM for one hour before shear stress protocol
# [4] = brief treatment prior to shear stress protocol
Compound,shear stress resistance of cells in PBS supplemented with the cation ([1]; 250 μL/sec),"cell death in treated cells versus DMSO treated controls after shear stress protocol [2, 3]","cell viability during pretreatment, before shear stress [2, 4]","cell death in treated cells versus DMSO treated controls after shear stress protocol [1, 3]","cell viability during pretreatment, before shear stress [1, 4]","survival curve under shear stress of cells in PBS supplemented with the cation ([1]; 250 μL/sec, calcium at same concentration as complete medium (129.4 μg/mL))"
[Ba] [barium],equally susceptible to shear stress as cells in nominally calcium-free PBS,–,–,–,–,–
C=C1[C@@H](C)[C@H]2[C@H](Cc3ccccc3)NC(=O)[C@]23[C@H](OC(C)=O)/C=C/[C@@](C)(O)C(=O)[C@@H](C)C/C=C/[C@H]3[C@@H]1O [cytochalasin-D],–,over 3 fold,not affected,over 3 fold,not affected,–
[Ca+2] [calcium],rescues the shear stress resistance phenotype,–,–,–,–,not significantly different from the media control suspensions
